Measurements as given in patent publication US10232043B2, “Photoactivated molecules for light-induced modulation of the activity of electrically excitable cells and methods of using the same” (UNIVERSITY OF SOUTHERN CALIFORNIA, priority 2015, dated 2019).

Assays:
HEK293T cells [1] = test: Voltage-clamp membrane current under light; assay type: cell-based, human; conditions: approximately −80 mV
Procedure: To examine whether light-activated RubpyC17 can directly interact and open or block endogenous ion channels, HEK293T cells were preincubated with RubpyC17, and patch-clamped in a voltage-clamp configuration. Voltage-clamp configuration allowed the cells to be clamped at a potential where most voltage-gated ion channels are closed (approximately −80 mV). […] The current-voltage relationship (see FIGS. 21C and 21D) as well as the steady-state voltage-dependent activation curves of RubpyC17-treated chromaffin cells in voltage-clamp mode before and during light illumination (see FIG. 21E).

[2] = tested on: INS, HEK293T and chromaffin cells; test: Imaging RubpyC17 in live cells (membrane integration); assay type: cell-based, rat, human, mouse
Procedure: Cells were imaged at 1-3 days after plating. The glass-bottomed chambers with adherent cells were washed twice with PBS and then filled with standard extracellular solution consisting of 140 mM NaCl, 2.8 mM KCl: 10 mM HEPES, 1 mM MgCl2, 2 mM CaCl2, and 10 mM glucose, pH adjusted to 7.2-7.4 and osmolarity adjusted to 290-310 mOsm. The chamber was then mounted on an Olympus IX70 inverted microscope stage for imaging, using a Cascade 512B EMCCD camera, operated by Metamorph software. Initial imaging was done with, cells in extracellular solution without RubpyC17, first under brightfield to evaluate cell health and morphology, then under widefield argon ion laser illumination at 488 nm (Coherent, Innova 90-5, Santa Clara, Calif.), to evaluate autofluorescence. Next, the extracellular solution was removed and replaced with extracellular solution containing the RubpyC17 compound (10 μM in <0.01% DMSO, final concentrations). Cell images were then acquired with illumination at 488 nm (collected with a long-pass red emission filter). For electrophysiological experiments, RubpyC17 compound was added to the extracellular solution (2-10 μM in <0.01% DMSO, final concentrations as indicated) and cells were incubated for 1.5-45 min, as indicated, then washed with extracellular solution without RubpyC17. Some chromaffin cells were also exposed continuously to 490-900 nM RubpyC17-containing extracellular solution.
Illustrated here are rat insulinoma INS cells (see FIG. 17C, top), human embryonic kidney (HEK293T) cells (see FIG. 17C, middle), and primary cultured mouse chromaffin cells (see FIG. 17C, bottom). […] All cell types preserved morphology for at least 10 minutes. […] One embodiment of the possible light-induced electron transfer is depicted in FIG. 2.

RCS rats = test: Extracellular recording from superior colliculus after intravitreal injection; assay type: in vivo, rat
Description: FIGS. 27C-27F depict data related to administration of Rubpy-C17. White light was used for illumination in panels A, C, and D, while blue light (450 nm) was used in panels B, E, and F.
This finding was reproduced in 3 of 3 RCS rats injected with Rubpy-C17, and in 2 of 2 control (sham injection) RCS rats.

HEK293T cells [3] = test: Effect of PF6:Cl counter ion ratio of Rubpy-C17 on HEK293T cells; assay type: cell-based
Procedure: In some embodiments, the 20 mg of Rubpy-C17 is stored in −20° C. with desiccant in the dark. […] 253 μl of DMSO is then added into the original bottle containing Rubpy-C17 to make 100 mM stock solution. In some embodiments, the stock solution is aliquot and stored in −20° C. with desiccant in the dark.
In some examples, on the day before or on, the same day of the experiment, the following 2.5 mM external solution is prepared using the following steps. The external solution is warmed up to 37° C. For […] of the external solution, 0.176 grams of absorbic acid was added. Another 240 μL 5M NaOH was added to adjust the pH to between about 7.2-7.4. The absorbic solution can then be filtered through a 0.2 μm filter. The solution is then stored in the dark in 4° C. In some examples, the solution must be used within one week.
The 100 mM of Rubpy solution is first thawed from −20° C. 100 mM Rubpy is then diluted to 10 mM Rubpy: 2 μL 100 mM Rubpy+18 μL DMSO. In some examples, this is vortexted to mix and then centrifuged down with a small bench-top. The culture, medium is aspirated and the cells are rinsed with external solution several times. The external solution can then be aspirated. In some examples, enough of the external solution is left on the cells to prevent it from drying. 500 μL of external solution with 2.5 mM of ascorbic acid can then be added.
In some examples, 1 μL of 10 mM of Rubpy to […] of external solution with 2.5 mM ascorbic acid and mixed well. This should produce a final concentration of 10 μM of Rubpy with 0.1% DMSO. This mixed solution is then added to the above referenced cells and incubated for 10 minutes.
The solution can then be aspirated from the plate and rinsed with regular external solution several times. 2 mL of external solution is added to 2.5 mM ascorbic acid for recording. For each plate, a baseline control is taken by recording the first cell before performing any light-stimulating protocol. The light-stimulus can include 10-40 s in duration and bandpassed at 455-495 nm (blue light).
As discussed above, the mixture a 10 μM of RubpyC17 solution was placed in 10 HEK293T cells.

mouse chromaffin cells = test: Carbon-fiber amperometry, light-triggered secretion; assay type: cell-based
Procedure: Carbon fiber electrodes were prepared using established methodology and coupled to an EPC10 amplifier. A +800 mV constant voltage was applied to the electrode relative to the Ag/AgCl bath electrode. The amperometry recordings were sampled at 4 kHz using Pulsemaster (HEKA). Extracellular composition consisted of 120 mM NaCl, 20 mM KCl, 10 mM HEPES, 1 mM MgCl2, 2 mM CaCl2, 10 mM glucose, pH adjusted to 7.2-7.4, and osmolarity adjusted to 290-300. Light stimulation in the blue spectrum originated from a xenon lamp source through a 470/40 nm bandpass excitation filter. The duration of illumination varied and is indicated by bars on figures.
Action potential firing triggers secretion of norepinephrine and epinephrine from adrenal chromaffin cells, which can be readily detected by the technique of carbon-fiber amperometry, thus serving as a surrogate to detect action potential firing. […] Out of 18 RubpyC17-loaded cells tested, 15 cells (83%) experienced increased secretion by at least 100-fold during light illumination. Unlike the changes in light-induced depolarization, light-induced changes in secretion appeared to be more transient One possible explanation for this is that at any moment in time, there are only a small number of release-competent vesicles—the so-called readily releasable pool of vesicles and maintained stimulation causes rapid depletion of the readily releasable pool of vesicles in the initial phase of stimulation.

CCCCCCCCCCCCCCCCCc1ccnc(-c2cc(C)ccn2)c1.F[P-](F)(F)(F)(F)F.F[P-](F)(F)(F)(F)F.[Ru+2].c1ccc(-c2ccccn2)nc1.c1ccc(-c2ccccn2)nc1 [RubpyC17, [Ru(bpy)2(bpy-C17)](PF6)2]
light-induced changes in membrane current (HEK293T cells [1]): did not exhibit light-induced changes in membrane current | time for which all cell types preserved morphology ([2]; 10 μM RubpyC17): at least 10 minutes | incorporation into cell membranes (plasma membrane-localized luminescence) ([2]; 10 μM in bath, INS, HEK293T, mouse chromaffin cells): rapidly and stably incorporates into mammalian cell membranes | membrane luminescence after RubpyC17 removal from the bath solution ([2]; at 10 minutes after removal): still observed | rats in which the finding was reproduced (RCS rats; RCS rats injected with Rubpy-C17): 3 of 3 | time after injection with light-induced SC electrical responses (RCS rats; eye injection, RCS rats): up to 3 days | light-elicited electrical activity in superior colliculus field recording (RCS rats; intravitreal, final concentration 100 μM, 30 minutes later, blind RCS rats): elicited reproducible and stereotypical electrical activity | fluorescence pattern (HEK293T cells [3]; only PF6 counter ions): punctuate fluorescence | Cell Death (HEK293T cells [3]; only counter ion is chloride): cell death is observed | amperometric current spikes (vesicular secretion) under light (mouse chromaffin cells; 2 μM RubpyC17, 488 nm): exhibited numerous amperometric current spikes | cells with increased secretion during light illumination (mouse chromaffin cells; 15 of 18 RubpyC17-loaded cells): 83% | increase of secretion during light illumination (mouse chromaffin cells; responding cells): at least 100 fold
